Laboratory results: patent US8575188B2 (priority 2009, dated 2013)
Where two headings read alike, the source gives them in different places.

Experiments:
[1] = test system: H69 small cell lung cancer line; test: Efflux pump drug resistance, antiproliferation assay, parent line; type: cell-based; details: air
Procedure: (§1) The compounds were screened for cytotoxicity using human non small cell lung cancer cell line H460. […]
(§2) Cellular drug resistance was determined using the antiproliferation assay described above.

pcDNA = test: as above; type: cell-based; details: air
Procedure: as §1, §2

[2] = test system: human melanoma cell line A375; test: Antiproliferation assay, 72 hrs under air, Alamar Blue; type: cell-based
[3] = test system: human prostate cancer cell line LNCap; test: as above; type: cell-based
[4] = test system: human colon cancer cell line HT-29; test: as above; type: cell-based
[5] = test system: bone marrow progenitor cells; test: Bone marrow progenitor cell clonogenic assay (CFU-GM), human; details: read-out: Human CFU-GM (IC50 nM) THLD
Procedure: (§3) A clonogenic assay was performed using bone marrow progenitor cells derived from the blood of mice and humans.

[6] = as above; details: human
Procedure: as §3

[7] = test system: human melanoma cell line MAMLE-3M; test: Antiproliferation assay, 72 hrs under air, Alamar Blue; type: cell-based
[8] = test system: MRP1 over expressing H69AR line; test: Efflux pump drug resistance, antiproliferation assay, MRP1 over expressing line; type: cell-based; details: Homo sapiens, air
Procedure: as §1, §2

human colon cancer HT-29 = test: Xenograft model, subcutaneous, tumor growth inhibition and body weight loss; details: for Max. BWL (%): mouse, in vivo, po
Procedure: (§4) The first three models were produced by subcutaneous implantation of the appropriate number of cells into the flank of the animals. When tumor size was approximately 150 mm^3, animals were randomized into groups of 10 mice each for dosing. One arm was dosed with only vehicle and the results used for the efficacy calculations. […] TGI=(1−T/C) %. T/C ratio was calculated as T/C=(Tn−Ti)/(Cn−Ci), where Tn is tumor volume in treatment group on Day n, and Ti is the initial tumor volume in the treatment group. Cn is the tumor volume of the vehicle group on the last day of measurement. Ci is the initial tumor volume in the vehicle control group. Day n is the last measurement taken when all the animals in the vehicle group were not yet euthanized. Animals were euthanized when tumor volumes grew larger than 2000 mm^3.

[9] = test system: human non small cell lung cancer H-460; test: as above
Procedure: as §4

[10] = test system: human melanoma cell line SKMEL-28; test: Antiproliferation assay, 72 hrs under air, Alamar Blue; type: cell-based
[11] = test system: bone marrow progenitor cells; test: Bone marrow progenitor cell clonogenic assay (CFU-GM), mouse; details: read-out: Mouse CFU-GM (IC50 nM) THLD
Procedure: as §3

[12] = as above; details: mouse
Procedure: as §3

[13] = test system: human melanoma cell line SKMEL2; test: Antiproliferation assay, 72 hrs under air, Alamar Blue; type: cell-based
[14] = test system: human non small cell lung cancer cell line H460; test: Antiproliferation (cytotoxicity) assay, 72 hrs under air, Alamar Blue; type: cell-based; details: read-out: IC50
[15] = In vivo pharmacokinetics, oral gavage; details: CD, mouse, in vivo, po, 50 mg/kg
Procedure: The data normalized to a 50 mg/kg dose are shown below (compounds were dosed at either 25 or 50 mg/kg).

[16] = test system: human ovarian cancer cell line IGROV-1; test: Antiproliferation assay, 72 hrs under air, Alamar Blue; type: cell-based
[17] = test system: BCRP, which over expressed the breast cancer resistance protein; test: Efflux pump drug resistance, antiproliferation assay, BCRP over expressing line
Procedure: as §1, §2

[18] = test system: human prostate cancer cell line DU145; test: Antiproliferation assay, 72 hrs under air, Alamar Blue; type: cell-based
[19] = test system: Messa ovarian carcinoma cell line; test: Efflux pump drug resistance, antiproliferation assay, parent line; type: cell-based; details: air
Procedure: […] Cells were treated with test compounds at various concentrations under air for 72 hrs, and then cell viability and proliferation were assessed by Alamar Blue staining.
as §2

[20] = test system: DX5, which over expresses the MDR 1 efflux pump; test: Efflux pump drug resistance, antiproliferation assay, MDR 1 over expressing line; type: cell-based; details: air
Procedure: as §1, §2

[21] = test system: mouse melanoma cell line B-16-F10; test: Antiproliferation assay, 72 hrs under air, Alamar Blue; type: cell-based; details: B16-F10
[22] = test system: human prostate cancer cell line PC-3; test: as above; type: cell-based; details: read-out: PC3 IC50
[23] = test system: IGROV1 human ovarian cancer cells; test: Xenograft model of metastatic ovarian cancer (i.p.), survival
Procedure: One arm was dosed with only vehicle and the results used for the efficacy calculations. […] A xenograft model of metastatic ovarian cancer was set up by the intraperitoneal (i.p) injection of 3×10^6 IGROV1 human ovarian cancer cells in nude mice. Mice were evaluated twice a week for morbidity and mortality. Kaplan-Meier survival curves were plotted.

[24] = Brain penetration, AUC in brain versus AUC plasma; details: mouse
Procedure: Certain compounds of the invention were assessed for brain penetration by comparing the AUC for plasma exposure versus the AUC in brain.

H46O cells = test: Selective hypoxic activation of 14-nitro prodrugs in cell culture; type: cell-based, human; details: TH1431 at 1 micromolar, 24 hr
Procedure: H46O cells were grown to a confluent monolayer and then the 14-nitro TH1332 prodrug was added to the media at 5 micromolar concentration. Incubations were done for 24 hour either under air or nitrogen (hypoxia), media and cells were recovered, sonicated and soluble extracts were isolated by acetonitrile precipitation of proteins. The level of amino TH1338 active cytotoxin were quantitated by liquid chromotagraphy mass spectra analysis. The equivalent of 70 nanomolar TH1338 was produced under hypoxia with undetectable levels being produced under air (less than 5 nanomolar).
The analogous experiment was preformed using 1 micromolar concentration of the 14-nitro derivative TH1431. After 24 hr, 180 nanomolar of the 14 amino TH1499 was produced under nitrogen with undetectable levels produced under air (less than 5 nanomolar).

[25] = test system: human prostate cancer PC-3; test: Xenograft model, subcutaneous, tumor growth inhibition and body weight loss; details: PC3, PO, QD × 5/wk, 2 weeks, 2 mg/Kg
Procedure: as §4

[26] = stated as known for topotecan; cited from earlier work
[27] = 72 h, 3 days, read-out: Air 3d H69 prol. IC50
[28] = 72 h, 3 days, read-out: Air 3d pcDNA prol. IC50
[29] = Homo sapiens, HT-29, read-out: HT29 IC50
[30] = 72 h, 3 days, read-out: Air 3d H69ar (MRP1) prol. IC50
[31] = Homo sapiens, NCI-H460, H460, inhibition of proliferation, 72 hrs under air
[32] = Homo sapiens, MES-SA, 72 h, 3 days, read-out: Air 3d MESSA prol. IC50
[33] = HT29, PO, QD × 5/wk, 4 weeks, 2 mg/Kg
[34] = H460, PO, QD × 5/wk, 2 weeks, 2 mg/Kg

CC[C@@]1(O)C(=O)OCc2c1c(N)c1n(c2=O)Cc2c-1nc1ccccc1c2C [TH1339] showed an IC50 [1, 27] of 13 nM, an IC50 (pcDNA; [28]) of 2.3 nM and an IC50 ([2]; Homo sapiens, A-375) of 3 nM. It also gave an IC50 ([3]; Homo sapiens, LNCaP) of 23 nM, an IC50 [4, 29] of 69 nM and an IC50 ([5]; Homo sapiens, CFU-GM) of 10 nM. It also gave an IC90 [6] of 100 nM, an IC50 ([7]; Homo sapiens) of 220 nM and an IC50 [8, 30] of 28 nM. The “TGI (%)” value (human colon cancer HT-29; HT29, PO, QD × 5/wk, 2 weeks, 30 mg/Kg) was 56.5%, the “Max. BWL (%)” value (human colon cancer HT-29; 30 mg/kg) was 3% and the “TGI (%)” value ([9]; H460, PO, QD × 5/wk, 2 weeks, 15 mg/Kg) was 46.1%. The “Max. BWL (%)” value ([9]; mouse, in vivo, po, 15 mg/kg) was 0%, the IC50 ([10]; Homo sapiens, SK-MEL-28) was > 10000 nM and the IC50 ([11]; Mus musculus, CFU-GM) was 560 nM. It also gave an IC90 [12] of 2200 nM, an IC50 ([13]; Homo sapiens, SK-MEL-2, read-out: SKMEL-2 IC50) of 50 nM and an IC50 [14, 31] of 1.8 nM. For the same compound, the AUC [15] was 405 ng·h/mL, the Cmax [15] was 378 ng/mL and the IC50 ([16]; Homo sapiens, IGROV-1) was 10 nM. For the same compound, the IC50 ([17]; 72 h, read-out: Air 3d BCRP prol. IC50 nM, air, 3 days) was 2.1 nM, the “3d BCRP/pcDNA” value ([17]; ratio of IC50s, BCRP over expressing versus parent line, 3 days) was 0.913 and the IC50 ([18]; Homo sapiens, DU-145) was 2.5 nM. It also gave an IC50 [19, 32] of 8.5 nM, an IC50 ([20]; MDR1, 72 h, 3 days, read-out: Air 3d DX5 prol. IC50) of 6.7 nM and an IC50 [21] of 690 nM. The IC50 ([22]; Homo sapiens) was 9 nM and the T/C ([23]; IGROV1 i.p., median survival treated / vehicle times 100, PO, QD × 5/wk, 4 weeks, 20 mg/Kg) was 280.

In the case of CC[C@@]1(O)C(=O)OCc2c1c([N+](=O)[O-])c1n(c2=O)Cc2c-1nc1ccccc1c2/C=N/OC(C)(C)C [TH1431], the IC50 [1, 27] is reported as 3790 nM, the IC50 ([1]; 120 h, 5 days, read-out: Air 5d H69 prol. IC50) is reported as 354 nM and the IC50 (pcDNA; [28]) is reported as 461 nM. For the same compound, the IC50 (pcDNA; 120 h, 5 days, read-out: Air 5d pcDNA prol. IC50) was 67 nM, the IC50 (pcDNA; 3 days, read-out: Air 3d pcDNA prol. IC50) was 900 nM and the IC50 [4, 29] was 288 nM. The IC50 [8, 30] was > 10000 nM, the IC50 ([8]; 120 h, 5 days, read-out: Air 5d H69ar (MRP1) prol. IC50) was 838 nM and the “TGI (%)” value (human colon cancer HT-29; HT29, PO, QD × 5/wk, 2 weeks, 25 mg/Kg) was 34.6%. The “Max. BWL (%)” value (human colon cancer HT-29; 25 mg/kg) was 1.6%, the IC50 [14, 31] was 800 nM and the AUC [15] was 352 ng·h/mL. The Cmax [15] was 348 ng/mL, the Kp [24] was 0.12 and the IC50 ([17]; 120 h, read-out: Air 5d BCRP prol. IC50 nM, air, 5 days) was 78 nM. For the same compound, the “5d BCRP/pcDNA” value ([17]; ratio of IC50s, BCRP over expressing versus parent line, 5 days) was 1.1642, the IC50 [19, 32] was 2690 nM and the IC50 ([19]; Homo sapiens, MES-SA, 120 h, 5 days, read-out: Air 5d MESSA prol. IC50) was 255 nM. It also gave an IC50 ([19]; 3 days, read-out: Air 3d MESSA prol. IC50) of 3300 nM, an IC50 ([20]; MDR1, 120 h, 5 days, read-out: Air 5d DX5 prol. IC50) of 515 nM and an IC50 [21] of 720 nM. For the same compound, the “TH1499 produced under air” value (H46O cells; air, undetectable levels) was “less than 5 nanomolar”, the “14 amino TH1499 produced under nitrogen” value (H46O cells; nitrogen) was 180 nM and the IC50 ([22]; Homo sapiens) was 29 nM.

In the case of CC[C@@]1(O)C(=O)OCc2c1cc1n(c2=O)Cc2cc3c(CN(C)C)c(O)ccc3nc2-1 [Topotecan, reference compound], the IC50 [2] is reported as 13 nM, the IC50 [3] is reported as 9 nM and the IC50 ([4]; read-out: HT29 IC50) is reported as > 1000 nM. The IC50 [5] was 8 nM, the IC50 [7] was 1000 nM and the “Max BWL (%)” value (human colon cancer HT-29; [33]) was 0%. The “TGI (%)” value (human colon cancer HT-29; [33]) was 70.3%, the “Max BWL (%)” value [9, 34] was 8.9% and the “TGI (%)” value [9, 34] was 46.1%. For the same compound, the “Max BWL (%)” value [25] was 1.3%, the “TGI (%)” value [25] was 79% and the IC50 [10] was > 10000 nM. The IC50 [11] was 130 nM, the IC50 ([13]; read-out: SKMEL-2 IC50) was 140 nM and the IC50 [14] was 45 nM. The IC50 [16] was 160 nM, the “ratio BCRP over expressing line versus the parent cell line” value ([17]; not told) was 51 and the IC50 [18] was 30 nM. The “brain levels in mice relative to plasma levels” value [26] was “about 30%”, the IC50 [22] was 45 nM and the T/C ([23]; mouse, in vivo, 2 mg/kg) was 186.
